From patent publication US11980681B2, “Material for demineralizing dentin collagen fibril, preparation method and application thereof” (THE FOURTH MILITARY MEDICAL UNIVERSITY OF CHINESE PEOPLE'S …, priority 2019, dated 2024)

Experiments:
[1] = tested on: human dental pulp stem cells (hDPSCs); experiment: Cytotoxicity test: mitochondrial dehydrogenase activity and intracellular DNA content; type: cell-based; settings: hDPSCs exposed to 32% phosphoric acid, 0.1M EDTA or 25 mg/ml GCE; PBS control
From the text: (§1) FIG. 5A detects the mitochondrial dehydrogenase activity (Mito.) of human dental pulp stem cells (hDPSCs) that had been exposed to different dentin demineralizing agents.
FIG. 5B detects intracellular DNA content of human dental pulp stem cells that had been exposed to different dentin demineralizing agents.
as §1, with “agents. FIG. 5B detects intracellular DNA content of human dental pulp stem cells that had been exposed to different dentin demineralizing agents.” for “agents.”

[2] = Degree of degradation of dentin collagen in dentin mixed layers; settings: ranking among 32% phosphoric acid, EDTA and GCE
Description: FIG. 4B compares degree of degradation of dentin collagen in each group of the dentin mixed layers.
In this experiment, the inhibitory effect of GCE on soluble MMP-9 was evaluated using purified recombinant human MMP-9 (rhMMP-9) and a generic MMP assay kit (Sensolyte, AnaSpec Inc., Fremont, CA, USA). The MMP assay kit contains an intact thiopeptolide that is cleaved by specific MMPs to release a sulfhydryl group that produces colored 2-nitro-5-thiobenzoic acid with Ellman's reagent. A series of EDTA and GCE solutions (50 mg/mL, 25 mg/mL, 10 mg/mL, 5 mg/mL, 1 mg/mL) were used as test agents and 32% H3PO4 was used for comparison. […] Readings were taken after 60 min of incubation at 37° C. Absorbance was measured at 412 nm using a 96-well plate reader (VICTOR Nivo™, PerkinElmer). Background absorbance was determined from the “substrate control” wells and subtracted from the readings of the other wells containing the thiopeptolide substrate. The potency of rhMMP-9 inhibition by GM6001, the kit-included MMP inhibitor, and the […] concentrations of EDTA or GCE were expressed as percentages of the adjusted absorbance of the “positive control”. Inhibition of MMP (%) was calculated as 1−([A]test compound group−[A]test compound control)/([A]positive control−[A]substrate control), where [A] represents the absorbance values of the wells. […]

[3] = Rate of chelating Ca2+ from mineralized dentin, inductively coupled plasma-atomic emission spectrometry; settings: 0.1M EDTA vs EDTA cross-linked glycol chitosan at 50, 25 and 10 mg/ml
[4] = Transmission electron microscopy of mineralized dentin treated with demineralizing agents; settings: 0.1M EDTA for 60 seconds or 25 mg/ml glycol chitosan-EDTA for 30 seconds
Description: For wet bonding, the conditioned specimen was kept moist by removing excess water from the dentin surface with lint-free tissues prior to bonding. For dry bonding, the conditioned dentin was air-dried with […] moisture-free air for 5 sec. The dentin bond strength was measured by the following methods. After treatment with various demineralizing agents and rinsing with deionized water, each tooth segment was bonded with Adper Single Bond 2 (3M ESPE; St Paul, MN, USA). After bonding, a 4-mm thick of resin composite (Z250, 3M ESPE) was placed over the adhesive-coated dentin surface using incremental light-curing. The bonded teeth with composite build-ups were stored in water for 24 hours at 37° C. Each specimen was subsequently sectioned to 0.9 mm×0.9 mm×7 mm long sticks, each with the resin-dentin interface in the middle of the stick. Each stick was attached with cyanoacrylate glue (Zapit; Dental Ventures of America, Corona, CA, USA) to a testing jig and stressed to failure under tension in a universal testing machine (Vitrodyne V1000; Liveco Inc., Burlington, VT, USA) at a cross-head speed of 1 mm/min. The tensile load at failure was recorded and divided by the measured cross-sectioned area of each beam to yield the tensile bond strength. The mean bond strength value derived from the 4 beams of each tooth was used to represent the tensile bond strength of that particular tooth. […]

Structure (SMILES) | cell viability [1] | degradation rate of collagen [2] | demineralization effect (rate of chelating Ca2+) [3] | extent of dentin demineralization in TEM image [4]
O=P(O)(O)O [phosphoric acid] | lowest | highest | – | –
O=C(O)CN(CCN(CC(=O)O)CC(=O)O)CC(=O)O [EDTA, ethylenediaminetetraacetic acid] | followed by the EDTA group | followed by EDTA | strongest demineralization effect | complete demineralization in a part of area and partial demineralization in some areas
